≈ marks a conversion by molar mass, not a printed value. Entries after “also recorded” stand apart in the source; their conditions may differ.
Assays:
[1] = tested on: acyl-CoA: cholesterol O-acyltransferase enzyme (ACAT); assay: Inhibition of cellular ACAT (esterification of 3H-cholesterol taken up by cells); details: for IC50: ACAT inhibition; for ACAT inhibition, result in words: comparison bivalent vs. monomeric / by dose
[2] = Hypercholesterolemic model, obese female Zucker rats (fa/fa), dose response of plasma lipids after 1 week; type: in vivo, Zucker rat; details: genetically obese Zucker rats
Description: Obese female Zucker rats (fa/fa) weighing 500-600 g were used in the study. These animals are endogenously hypertriglyceridemic and hypercholesterolemic as was described above. Basal plasma triglycerides, cholesterol, and HDL-C levels were determined in individual rats (Ektachem DT 60 Analyzer) which were then randomly assigned to four Compound Ia (Ia) treatment groups (5 mg/kg, n=4; 10 mg/kg, n=4; 20 mg/kg, n=4; 30 mg/kg, n=3). The animals were all individually housed and received Purina Chow pellets (#5002) containing IA at levels calculated to provide the daily doses of Ia described above. After 1 week, all rats were bled by cardiac puncture for determination of plasma triglycerides, cholesterol, and HDL-C. An additional group of rats (n=3) receiving chow alone was run in parallel with the treatment groups as an additional control for the experiment. Each animal acted as its own control since plasma lipid parameters were measured in each animal immediately prior to dosing. The data for triglycerides, cholesterol, and HDL-C were adjusted for this pre-dosing value using a percent change calculation: ((Post-Pre)/Pre)100 . For all 3 measurements, a simple linear model was fit to the percent change value vs log 10 (dose). The logarithmic transformation was used to linearalize the relationship.

[3] = Hypertriglyceridemia model, female Zucker rats (fafa), compound in chow with cross-over; type: in vivo, Zucker rat
Description: Female Zucker rats (fafa, 378±3) were maintained on a pelleted chow diet (Purina Chow #5001) or the chow diet which contained Compound Ia (Ia) at a level calculated to deliver 50 mg/kg/day. The Ia containing pellets were prepared from #5001 meal into which the drug had been pre-mixed and subsequently pelletized. […] The plasma was obtained from heparinized blood taken by cardiac puncture and the lipids were measured using an Ektachem DT60 analyzer (Eastman Kodak).

[4] = Plasma triglycerides in rats or rabbits whose triglycerides are within normal limits; type: in vivo; details: rats or rabbits with triglycerides within normal limits
[5] = Antiatherosclerotic activity, Netherland dwarf rabbits on cholesterol-containing atherogenic diet, twelve weeks; type: in vivo, Netherland dwarf rabbit; details: 50 mg/kg/day
Description: In another experiment, ACAT inhibitor compound Ia (Table 2) was administered for twelve weeks at 50 mg/kg/day to Netherland dwarf rabbits that were feed a cholesterol-containing atherogenic diet. During the twelve week period serum cholesterol, triglycerides, and carnitine were monitored. At the end of the study the aortas from the drug treated group and a non-drug treated group were examined for atherosclerosis development.

[6] = Antiatherosclerotic activity, SEA quail on high cholesterol diet, oral compound, arteries analysed after eight weeks; type: in vivo, SEA Japanese quail; details: statistically significant
Description: For example, five to six week old, male, SEA quails were placed on a high cholesterol diet with one group orally receiving the subject ACAT inhibitor compound Ia (Table 2). After eight weeks the arteries were removed, cleaned and homogenized. Total cholesterol, free cholesterol and triglycerides were measured.

Compound | % ACAT Inhibition ([1]; 5 μg/ml) [%] | % ACAT Inhibition ([1]; 10 μg/ml) [%] | % ACAT Inhibition ([1]; 15 μg/ml) [%] | other results
COc1c2c(c(OC)c3occc13)OC(=CN1CCC(CCCC3CCN(C=C4Oc5c(c(OC)c6ccoc6c5OC)C4=O)CC3)CC1)C2=O [Compound III] | 18 | 29 | 52 | –
COc1c2occc2c(OC)c2c(=O)nc(N3CCC(CCCC4CCN(c5nc(=O)c6c(OC)c7ccoc7c(OC)c6o5)CC4)CC3)oc12 [Compound II] | 60 | 89 | 97 | IC50 [1]: 1.8 µg/mL (≈ 2.57 µM)
COc1c2c(c(OC)c3occc13)OC(=CNCCCCCCCCNC=C1Oc3c(c(OC)c4ccoc4c3OC)C1=O)C2=O [Compound IX] | 63 | 52 | 51 | ACAT inhibition, result in words [1]: excellent inhibition over its monomeric counterparts; also recorded: surprisingly good inhibitory activity even at the 5 μg/ml dose
COc1c2occc2c(OC)c2c(=O)cc(CN3CCC(CCCC4CCN(Cc5cc(=O)c6c(OC)c7ccoc7c(OC)c6o5)CC4)CC3)oc12 [Compound I] | 68 | 84 | 91 | IC50 [1]: 4.2 µg/mL (≈ 5.78 µM); ACAT inhibition, result in words [1]: enhanced potency
COc1c2occc2c(OC)c2c(=O)cc(CN3CCC(CCC4CCN(Cc5cc(=O)c6c(OC)c7ccoc7c(OC)c6o5)CC4)CC3)oc12 [Compound Ia] | 87 | 84 | 75 | plasma HDL cholesterol, result in words [2]: dose dependent elevation of plasma HDL cholesterol; also recorded: significant linear positive relationship between the % change HDL-C and log 10 (dose); also recorded: ability to elevate HDL-cholesterol; plasma total cholesterol, result in words [2]: without significant changes in plasma total cholesterol; also recorded: hypotriglyceridemic effect can be dissociated from a tendency to elevate plasma cholesterol; plasma triglycerides, result in words [2]: dose-dependent reduction in plasma triglycerides; also recorded: significant negative relationship between % change in plasma triglycerides and log 10 (dose); also recorded: confirmed the triglyceride lowering activity; mean plasma cholesterol ([3]; Ia administration, 50 mg/kg/day, from 126±18): 174 ± 8 mg/dL; plasma cholesterol, cross-over ([3]; controls crossed over to Ia at day 27, from 118±24, three of four animals increased): 164 ± 22 mg/dL; plasma triglycerides, cross-over ([3]; controls crossed over to Ia, 5 day cross-over period, from 2872±742): 656 ± 242 mg/dL; plasma cholesterol after withdrawal ([3]; drug withdrawn day 16): restored essentially to pretreatment levels; plasma triglycerides after withdrawal ([3]; drug withdrawn on day 16, within 1 week): essentially returned to pretreatment levels within 1 week; plasma triglycerides, lowest level reached ([3]; from levels as high as 3000 mg/dl): less than 300 mg/dl; plasma triglycerides ([3]; within 8 days of addition to diet, 50 mg/kg/day, from group mean 2431±446): 260 ± 52 mg/dL; effect on plasma triglyceride levels [4]: very little effect on plasma triglyceride levels; mean serum cholesterol level ([5]; control exceeded 2200 mg/dl): 271 mg/dL; atheromatous lesion development ([5]; extensive in controls): negligible atheromatous lesion development; development of hypercholesterolemia ([5]; vs. control): less extensive development of hypercholesterolemia; IC50 [1]: 0.8 µg/mL (≈ 1.12 µM); reduction in the accumulation of esterified cholesterol in the arteries [6]: thirty
COc1c2occc2c(OC)c2c(=O)cc(CN3CCN(CCN4CCN(Cc5cc(=O)c6c(OC)c7ccoc7c(OC)c6o5)CC4)CC3)oc12 [Compound Ib] | 5 | 6 | 2 | –
COc1c2occc2c(OC)c2c(=O)cc(CN3CCN(CC(O)CN4CCN(Cc5cc(=O)c6c(OC)c7ccoc7c(OC)c6o5)CC4)CC3)oc12 [Compound Ic] | 7 | 13 | 15 | –
COc1c2occc2c(OC)c2c(=O)cc(CN3CCC(C4CCN(Cc5cc(=O)c6c(OC)c7ccoc7c(OC)c6o5)CC4)CC3)oc12 [Compound Id] | 0 | 0 | 0 | –
COc1c2c(c(OC)c3c(=O)cc(CN4CCC(CCC5CCN(Cc6cc(=O)c7c(OC)c8c(c(OC)c7o6)OCC8)CC5)CC4)oc13)CCO2 [Compound V, 7,7'-(1,2-Ethanediylbis(4,1-piperidinediylmethylene))bis-2,3-dihydro-4,9-dimethoxy-5H-furo(3.2-g)(1)benzopyran-5-one] | 63 | 73 | 74 | IC50 [1]: 3.0 µg/mL (≈ 4.19 µM)
COc1c2c(c(OC)c3occc13)OC(=CNCCCN1CCN(CCCNC=C3Oc4c(c(OC)c5ccoc5c4OC)C3=O)CC1)C2=O [Compound VIII] | 32 | 41 | 49 | –
COc1c2c(c(OC)c3occc13)OC(=CN1CCC(CCCC3CCN(C=C4Oc5c(c(OC)c6ccoc6c5OC)C4=O)CC3)CC1)C2=O [Compound VII] | – | – | – | ACAT inhibition, result in words [1]: active at the high dose tested (15 μg/ml)
COc1c2oc([Si](C)(C)C)cc2c(OC)c2c(=O)cc(CN3CCC(CCC4CCN(Cc5cc(=O)c6c(OC)c7cc([Si](C)(C)C)oc7c(OC)c6o5)CC4)CC3)oc12 [Compound VI] | 18 | 29 | 52 | –
COc1c2occc2c(OC)c2c(=O)cc(CN3CCC(C)CC3)oc12 [IV, reference compound] | 10 | 27 | 39 | ACAT inhibition, result in words [1]: reduced percent ACAT inhibition
COc1c2c(c(OC)c3occc13)OC(=CNC1CCCCC1)C2=O [reference compound] | 47 | 55 | 65 | –
COc1c2c(c(OC)c3occc13)OC(=CNCc1ccccc1)C2=O [reference compound] | 50 | 66 | 78 | –

From patent US5304548A, “Bivalent ligands effective for blocking ACAT enzyme for lowering plasma triglycerides and for elevating HDL cholesterol” (The Upjohn Company, priority 1992, dated 1994)
